Data set [1] deals with NCI-H1975. The experiment in a line: Antitumor activity against human NCI-H1975 cells xenografted in nude mouse assessed as induction of tumor stasis at 20 mg/kg, ip qd for 14 days. The data set is classed as functional, organism-based. The arrangement: dose 20 mg/kg.
The test system of data set [2] is Epidermal growth factor receptor (Homo sapiens), P00533 [L858R]. To be noted: 1 uM.
Data set [3] has as its target Epidermal growth factor receptor (Homo sapiens, UniProt P00533, L858R/T790M). The experiment in a line: Inhibition of EGFR T790M/L858R double mutant (unknown origin) using Tyr 4 peptide as substrate after 1.5 hrs by FRET-based Z'-LYTE assay. The data set is classed as protein assay.
In data set [4] the target is Receptor tyrosine-protein kinase erbB-2 (Homo sapiens) (UniProt P04626). To be noted: 1 uM.
Description: Inhibition of HER2 (unknown origin) at 1 uM after 1 hr relative to control
Data set [5] addresses Receptor tyrosine-protein kinase erbB-4 (Homo sapiens) (UniProt Q15303). To be noted: 1 uM.
Description: Inhibition of HER4 (unknown origin) at 1 uM after 1 hr relative to control
Data set [6] deals with T1, Epidermal growth factor receptor (Homo sapiens, UniProt P00533). To be noted: 1 uM.
Description: Inhibition of EGFR (unknown origin) at 1 uM after 1 hr relative to control
Data set [7] has as its system Epidermal growth factor receptor (Homo sapiens), P00533 [T790M]. To be noted: 1 uM.
A short description of data set [8]: Toxicity in ip dosed nude mouse xenografted with human NCI-H1975 cells expressing T790M/L858R mutation administered qd for 14 days. The format is organism-based. To be noted: in vivo.
Data set [9] has as its system NCI-H1975. In words: Antitumor activity against human NCI-H1975 cells xenografted in nude mouse assessed as tumor growth inhibition at 20 mg/kg, ip qd for 14 days. The data set is classed as functional, organism-based. The arrangement: dose 20 mg/kg. Background: A xenograft is tissue or cells of one species grown in another, often human tumour cells in immunodeficient mice.

The test system of data set [10] is Mus musculus. In words: Toxicity in nude mouse xenografted with human NCI-H1975 cells expressing T790M/L858R mutation assessed as body weight loss at 20 to 40 mg/kg, ip qd for 14 days relative to control. The format is organism-based. The arrangement: dose 20-40 mg/kg, route intraperitoneal. The conditions noted are these: in vivo, 336 h.
The target of data set [11] is Tyrosine-protein kinase BTK (Homo sapiens) (UniProt Q06187). To be noted: 1 uM.
Description: Inhibition of BTK (unknown origin) at 1 uM after 1 hr relative to control
Data set [12] relates to Mus musculus. The experiment in a line: Toxicity in nude mouse xenografted with human NCI-H1975 cells expressing T790M/L858R mutation assessed as mortality at 20 to 40 mg/kg, ip qd for 14 days. The format is organism-based. The arrangement: dose 20-40 mg/kg, route intraperitoneal. The conditions noted are these: in vivo, 336 h.
Data set [13] can be described thus: Antiproliferative activity against gefitinib-sensitive human HCC827 cells harboring EGFR E746 to A750 deletion after 72 hrs by MTS assay. To be noted: HCC827, 72 h. The format is functional, cell-based.
For data set [14], the target named is T2, Tyrosine-protein kinase JAK3 (Homo sapiens) (UniProt P52333).
T2 sequence (whole entry): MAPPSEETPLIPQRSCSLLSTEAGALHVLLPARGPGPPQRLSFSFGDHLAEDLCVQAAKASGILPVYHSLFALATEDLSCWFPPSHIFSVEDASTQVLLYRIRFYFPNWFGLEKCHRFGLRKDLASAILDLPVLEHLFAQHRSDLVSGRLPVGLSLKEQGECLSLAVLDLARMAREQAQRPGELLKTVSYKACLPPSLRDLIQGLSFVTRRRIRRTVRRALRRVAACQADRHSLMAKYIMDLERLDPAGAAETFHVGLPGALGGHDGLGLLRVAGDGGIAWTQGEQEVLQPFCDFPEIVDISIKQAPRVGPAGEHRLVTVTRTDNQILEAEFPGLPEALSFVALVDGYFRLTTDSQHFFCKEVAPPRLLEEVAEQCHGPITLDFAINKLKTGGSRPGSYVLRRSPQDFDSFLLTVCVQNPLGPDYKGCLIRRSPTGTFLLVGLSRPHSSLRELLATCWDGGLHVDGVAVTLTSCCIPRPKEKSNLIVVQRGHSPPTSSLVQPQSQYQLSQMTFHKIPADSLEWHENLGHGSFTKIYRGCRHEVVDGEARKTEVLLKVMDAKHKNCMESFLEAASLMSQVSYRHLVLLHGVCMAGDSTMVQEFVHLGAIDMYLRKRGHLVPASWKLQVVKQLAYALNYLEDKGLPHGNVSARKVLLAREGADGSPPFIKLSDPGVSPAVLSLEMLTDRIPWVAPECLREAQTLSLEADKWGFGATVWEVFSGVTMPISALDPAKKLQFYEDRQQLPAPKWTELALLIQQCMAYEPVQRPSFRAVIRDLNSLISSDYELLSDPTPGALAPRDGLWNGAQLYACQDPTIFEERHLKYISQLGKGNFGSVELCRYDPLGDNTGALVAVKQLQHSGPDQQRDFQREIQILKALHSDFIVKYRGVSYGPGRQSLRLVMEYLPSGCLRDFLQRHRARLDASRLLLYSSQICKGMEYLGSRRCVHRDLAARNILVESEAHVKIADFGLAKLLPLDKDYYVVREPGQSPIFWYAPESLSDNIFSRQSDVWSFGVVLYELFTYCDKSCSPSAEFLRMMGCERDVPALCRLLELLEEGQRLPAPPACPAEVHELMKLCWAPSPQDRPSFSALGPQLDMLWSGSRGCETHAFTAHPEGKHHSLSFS
To be noted: 1 uM.
Description: Inhibition of JAK3 JH1 catalytic domain (unknown origin) at 1 uM after 1 hr relative to control

Data set [15] has as its system Epidermal growth factor receptor (Homo sapiens), P00533 [L858R,T790M]. To be noted: 1 uM.
Data set [16] concerns the target Epidermal growth factor receptor (Homo sapiens, UniProt P00533, L858R). In words: Inhibition of EGFR L858R mutant (unknown origin) using Tyr 4 peptide as substrate after 1.5 hrs by FRET-based Z'-LYTE assay. The data set is classed as protein assay. To be noted: read-out: IC50.
Data set [17] deals with T1, Epidermal growth factor receptor. The experiment in a line: Inhibition of wild type EGFR (unknown origin) using Tyr 4 peptide as substrate after 1.5 hrs by FRET-based Z'-LYTE assay. The conditions noted are these: read-out: IC50.
In data set [18] the test system is NCI-H1975. In words: cells. The data set is classed as functional, cell-based. To be noted: Homo sapiens, NCI-H1975, 72 h.

Molecules are shown by their SMILES. Activity calls are given as the source filed them. The calls are words filed in the database; no cut-off is given here.

The source of these data is ChEMBL document CHEMBL2434822, “Discovery of pteridin-7(8H)-one-based irreversible inhibitors targeting the epidermal growth factor receptor (EGFR) kinase T790M/L858R mutant” (J Med Chem, 2013).

By residual activity is commonly meant the signal under treatment as a percentage of the control signal. A lower residual activity goes with little activity left. One may read the IC50 as the concentration that gives 50% inhibition.

T1 sequence (P00533 whole entry): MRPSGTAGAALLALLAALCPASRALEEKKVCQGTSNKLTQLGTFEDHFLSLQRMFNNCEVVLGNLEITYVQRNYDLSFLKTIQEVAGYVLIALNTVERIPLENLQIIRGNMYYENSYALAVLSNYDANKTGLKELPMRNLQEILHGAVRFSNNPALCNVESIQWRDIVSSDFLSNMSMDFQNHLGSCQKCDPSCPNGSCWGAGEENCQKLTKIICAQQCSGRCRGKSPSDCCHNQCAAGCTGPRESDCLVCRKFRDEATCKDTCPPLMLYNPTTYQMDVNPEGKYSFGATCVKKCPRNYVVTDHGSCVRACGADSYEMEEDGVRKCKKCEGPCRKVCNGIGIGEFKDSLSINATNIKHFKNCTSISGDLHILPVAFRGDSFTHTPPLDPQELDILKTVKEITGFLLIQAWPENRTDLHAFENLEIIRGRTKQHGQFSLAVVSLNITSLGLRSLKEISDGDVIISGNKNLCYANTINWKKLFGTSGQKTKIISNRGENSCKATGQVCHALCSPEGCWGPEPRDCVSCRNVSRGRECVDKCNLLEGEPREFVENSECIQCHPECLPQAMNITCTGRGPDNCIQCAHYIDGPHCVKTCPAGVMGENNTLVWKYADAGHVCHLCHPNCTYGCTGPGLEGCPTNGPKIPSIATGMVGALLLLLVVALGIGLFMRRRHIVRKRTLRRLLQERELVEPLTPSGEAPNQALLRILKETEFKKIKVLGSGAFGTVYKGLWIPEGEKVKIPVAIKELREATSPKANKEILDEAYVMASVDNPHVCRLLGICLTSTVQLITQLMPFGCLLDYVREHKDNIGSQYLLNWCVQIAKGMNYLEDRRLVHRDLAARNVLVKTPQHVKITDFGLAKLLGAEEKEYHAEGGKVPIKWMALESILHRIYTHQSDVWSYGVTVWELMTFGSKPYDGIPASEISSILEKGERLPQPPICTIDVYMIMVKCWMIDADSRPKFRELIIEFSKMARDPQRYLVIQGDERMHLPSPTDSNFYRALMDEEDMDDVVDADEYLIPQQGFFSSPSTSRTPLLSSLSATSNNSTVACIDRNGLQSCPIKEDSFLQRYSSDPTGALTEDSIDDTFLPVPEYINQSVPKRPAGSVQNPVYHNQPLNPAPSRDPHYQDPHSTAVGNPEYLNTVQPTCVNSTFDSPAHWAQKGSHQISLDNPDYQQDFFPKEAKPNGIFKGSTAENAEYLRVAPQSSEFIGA
Receptor tyrosine-protein kinase erbB-4 (Homo sapiens), sequence (Q15303 whole entry): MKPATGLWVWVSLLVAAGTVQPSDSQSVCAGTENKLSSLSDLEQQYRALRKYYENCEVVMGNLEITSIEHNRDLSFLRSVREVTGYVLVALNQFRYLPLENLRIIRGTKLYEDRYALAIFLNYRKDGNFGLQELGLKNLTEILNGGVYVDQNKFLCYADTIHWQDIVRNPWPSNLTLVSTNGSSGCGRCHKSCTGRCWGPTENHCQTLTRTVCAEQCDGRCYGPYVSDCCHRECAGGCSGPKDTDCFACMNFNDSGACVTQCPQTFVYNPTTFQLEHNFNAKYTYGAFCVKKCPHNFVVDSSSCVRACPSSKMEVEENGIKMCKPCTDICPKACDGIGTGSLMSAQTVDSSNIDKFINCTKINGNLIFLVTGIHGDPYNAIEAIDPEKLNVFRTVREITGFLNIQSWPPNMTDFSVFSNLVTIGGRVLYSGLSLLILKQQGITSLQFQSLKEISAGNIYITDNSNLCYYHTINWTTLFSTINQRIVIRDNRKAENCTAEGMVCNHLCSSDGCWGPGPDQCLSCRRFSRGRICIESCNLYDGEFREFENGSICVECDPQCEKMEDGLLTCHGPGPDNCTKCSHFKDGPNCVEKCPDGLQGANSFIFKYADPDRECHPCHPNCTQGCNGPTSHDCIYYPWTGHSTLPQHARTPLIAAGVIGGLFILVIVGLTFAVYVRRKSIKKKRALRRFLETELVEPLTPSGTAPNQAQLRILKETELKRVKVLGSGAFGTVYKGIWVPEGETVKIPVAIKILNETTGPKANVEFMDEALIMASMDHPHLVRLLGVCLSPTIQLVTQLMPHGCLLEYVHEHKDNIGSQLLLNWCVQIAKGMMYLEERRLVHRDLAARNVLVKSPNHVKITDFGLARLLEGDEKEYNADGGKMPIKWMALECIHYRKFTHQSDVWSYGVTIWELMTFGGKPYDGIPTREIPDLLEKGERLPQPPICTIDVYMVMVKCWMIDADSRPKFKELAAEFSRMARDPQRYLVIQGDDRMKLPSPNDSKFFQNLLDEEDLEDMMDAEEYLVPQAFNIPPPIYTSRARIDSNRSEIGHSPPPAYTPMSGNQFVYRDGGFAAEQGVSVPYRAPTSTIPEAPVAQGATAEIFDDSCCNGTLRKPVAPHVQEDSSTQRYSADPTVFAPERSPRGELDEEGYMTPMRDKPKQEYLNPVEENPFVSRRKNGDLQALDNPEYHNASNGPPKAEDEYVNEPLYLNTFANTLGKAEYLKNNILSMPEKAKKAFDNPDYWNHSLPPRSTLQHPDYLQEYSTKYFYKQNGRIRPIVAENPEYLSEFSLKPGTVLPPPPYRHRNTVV
Epidermal growth factor receptor (Homo sapiens), P00533 [L858R,T790M], sequence (P00533 whole entry T790M/L858R, looked up): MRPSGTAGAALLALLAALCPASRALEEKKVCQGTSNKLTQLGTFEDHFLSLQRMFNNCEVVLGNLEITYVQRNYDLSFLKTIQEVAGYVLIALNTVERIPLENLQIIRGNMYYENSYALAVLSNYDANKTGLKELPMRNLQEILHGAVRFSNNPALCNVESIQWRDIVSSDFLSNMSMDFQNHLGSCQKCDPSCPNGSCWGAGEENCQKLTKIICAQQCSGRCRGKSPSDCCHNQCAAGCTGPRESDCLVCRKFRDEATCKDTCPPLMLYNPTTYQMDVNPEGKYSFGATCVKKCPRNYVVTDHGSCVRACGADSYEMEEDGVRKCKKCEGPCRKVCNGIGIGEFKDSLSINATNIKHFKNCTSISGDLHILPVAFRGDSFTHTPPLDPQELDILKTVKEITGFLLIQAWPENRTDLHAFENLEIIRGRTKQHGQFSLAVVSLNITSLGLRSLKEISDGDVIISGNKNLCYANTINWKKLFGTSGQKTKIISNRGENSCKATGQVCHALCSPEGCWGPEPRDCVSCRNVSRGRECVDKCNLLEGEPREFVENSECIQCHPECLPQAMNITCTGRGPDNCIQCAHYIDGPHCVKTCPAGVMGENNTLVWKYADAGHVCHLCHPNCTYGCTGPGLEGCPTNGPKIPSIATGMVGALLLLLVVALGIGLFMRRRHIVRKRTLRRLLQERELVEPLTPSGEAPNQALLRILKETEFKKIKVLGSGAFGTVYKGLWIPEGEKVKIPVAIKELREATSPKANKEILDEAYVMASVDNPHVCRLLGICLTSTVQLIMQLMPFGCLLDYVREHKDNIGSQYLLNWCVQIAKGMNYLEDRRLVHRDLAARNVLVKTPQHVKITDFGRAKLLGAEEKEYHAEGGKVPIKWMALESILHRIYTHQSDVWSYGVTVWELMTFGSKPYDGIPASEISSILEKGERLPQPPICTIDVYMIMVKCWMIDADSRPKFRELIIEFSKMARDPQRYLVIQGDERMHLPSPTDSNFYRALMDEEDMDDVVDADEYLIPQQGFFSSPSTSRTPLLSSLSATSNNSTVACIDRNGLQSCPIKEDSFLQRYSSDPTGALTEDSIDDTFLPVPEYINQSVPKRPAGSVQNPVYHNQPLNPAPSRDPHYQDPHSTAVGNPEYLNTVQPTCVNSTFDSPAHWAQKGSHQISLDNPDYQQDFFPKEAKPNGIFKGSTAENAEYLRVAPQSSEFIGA
Epidermal growth factor receptor (Homo sapiens, UniProt P00533, L858R/T790M), sequence (P00533 25-1210 T790M/L858R limits assumed): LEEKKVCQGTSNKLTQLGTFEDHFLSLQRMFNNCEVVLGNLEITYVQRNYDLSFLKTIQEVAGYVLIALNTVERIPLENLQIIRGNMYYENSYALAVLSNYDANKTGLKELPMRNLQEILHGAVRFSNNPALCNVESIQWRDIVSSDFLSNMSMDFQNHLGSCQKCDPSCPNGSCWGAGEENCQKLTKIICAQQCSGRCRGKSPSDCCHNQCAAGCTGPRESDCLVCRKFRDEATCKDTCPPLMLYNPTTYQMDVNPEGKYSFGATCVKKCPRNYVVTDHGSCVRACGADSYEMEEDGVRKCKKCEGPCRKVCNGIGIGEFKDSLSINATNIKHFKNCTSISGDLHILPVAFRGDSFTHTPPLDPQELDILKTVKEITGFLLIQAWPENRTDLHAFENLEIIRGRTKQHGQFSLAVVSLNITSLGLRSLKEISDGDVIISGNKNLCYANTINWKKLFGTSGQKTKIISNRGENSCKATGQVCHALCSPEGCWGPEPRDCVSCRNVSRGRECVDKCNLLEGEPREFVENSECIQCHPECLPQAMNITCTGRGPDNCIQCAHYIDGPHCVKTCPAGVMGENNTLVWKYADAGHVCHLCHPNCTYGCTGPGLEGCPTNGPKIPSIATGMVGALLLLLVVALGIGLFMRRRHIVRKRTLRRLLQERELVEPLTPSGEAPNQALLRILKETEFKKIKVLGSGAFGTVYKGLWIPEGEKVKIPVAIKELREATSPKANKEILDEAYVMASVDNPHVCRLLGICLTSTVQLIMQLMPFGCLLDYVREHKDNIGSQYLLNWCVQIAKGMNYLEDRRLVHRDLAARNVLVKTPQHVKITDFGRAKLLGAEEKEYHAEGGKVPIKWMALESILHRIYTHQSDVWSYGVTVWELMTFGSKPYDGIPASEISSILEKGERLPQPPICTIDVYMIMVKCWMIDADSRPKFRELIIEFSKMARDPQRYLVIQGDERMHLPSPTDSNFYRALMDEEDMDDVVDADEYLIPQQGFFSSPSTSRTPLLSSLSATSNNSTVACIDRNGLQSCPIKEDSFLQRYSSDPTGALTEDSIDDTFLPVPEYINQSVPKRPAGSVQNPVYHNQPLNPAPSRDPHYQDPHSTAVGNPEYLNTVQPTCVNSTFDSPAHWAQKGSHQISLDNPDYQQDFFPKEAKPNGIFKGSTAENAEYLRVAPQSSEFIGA

On to `C=CC(=O)Nc1cccc(-n2c(=O)cnc3cnc(Nc4ccc(N5CCN(C)CC5)cc4OC)nc32)c1`, for which, in data set [1], the result was Active. In addition, the residual activity in data set [2] is 0.3%; in data set [4], < 10%; in data set [5], < 1%; in data set [6], < 10%; in data set [7], 0.35%; in data set [11] it was < 1%. Besides, the values for the residual activity in data set [14] and in data set [15] were < 10% and 0.1%, respectively. Besides, the IC50 in [3] was found to be 1.07 nM; in data set [13], 8.6 nM; in data set [16], 2.56 nM; in [17], 3.82 nM; in data set [18], 59 nM. In [8], this compound displayed an MTD at 336 h of 20 mg/kg. Further, in [9], the TGI entry is “Active”. Moreover, the results for the Activity in data set [10] and in data set [12] were < 5% and “Non-toxic”, respectively.
